Measurements: ChEMBL document CHEMBL3632516, “Influence of polar side chains modifications on the dual enkephalinase inhibitory activity and conformation of human opiorphin, a pain perception related peptide” (Bioorg Med Chem Lett, 2015)
Residues, ends and D or L forms follow the SMILES beside them. *: point of attachment. X1 = CC(=O)N[C@@H]1[C@@H](O)[C@H](O)[C@@H](CO)O[C@@H]1*

What was measured:
Aminopeptidase N = Aminopeptidase N (Homo sapiens, UniProt P15144); assay: Inhibition of human recombinant aminopeptidase N using […] as substrate after 20 to 40 mins by fluorometry
Chain of Aminopeptidase N (P15144 whole entry): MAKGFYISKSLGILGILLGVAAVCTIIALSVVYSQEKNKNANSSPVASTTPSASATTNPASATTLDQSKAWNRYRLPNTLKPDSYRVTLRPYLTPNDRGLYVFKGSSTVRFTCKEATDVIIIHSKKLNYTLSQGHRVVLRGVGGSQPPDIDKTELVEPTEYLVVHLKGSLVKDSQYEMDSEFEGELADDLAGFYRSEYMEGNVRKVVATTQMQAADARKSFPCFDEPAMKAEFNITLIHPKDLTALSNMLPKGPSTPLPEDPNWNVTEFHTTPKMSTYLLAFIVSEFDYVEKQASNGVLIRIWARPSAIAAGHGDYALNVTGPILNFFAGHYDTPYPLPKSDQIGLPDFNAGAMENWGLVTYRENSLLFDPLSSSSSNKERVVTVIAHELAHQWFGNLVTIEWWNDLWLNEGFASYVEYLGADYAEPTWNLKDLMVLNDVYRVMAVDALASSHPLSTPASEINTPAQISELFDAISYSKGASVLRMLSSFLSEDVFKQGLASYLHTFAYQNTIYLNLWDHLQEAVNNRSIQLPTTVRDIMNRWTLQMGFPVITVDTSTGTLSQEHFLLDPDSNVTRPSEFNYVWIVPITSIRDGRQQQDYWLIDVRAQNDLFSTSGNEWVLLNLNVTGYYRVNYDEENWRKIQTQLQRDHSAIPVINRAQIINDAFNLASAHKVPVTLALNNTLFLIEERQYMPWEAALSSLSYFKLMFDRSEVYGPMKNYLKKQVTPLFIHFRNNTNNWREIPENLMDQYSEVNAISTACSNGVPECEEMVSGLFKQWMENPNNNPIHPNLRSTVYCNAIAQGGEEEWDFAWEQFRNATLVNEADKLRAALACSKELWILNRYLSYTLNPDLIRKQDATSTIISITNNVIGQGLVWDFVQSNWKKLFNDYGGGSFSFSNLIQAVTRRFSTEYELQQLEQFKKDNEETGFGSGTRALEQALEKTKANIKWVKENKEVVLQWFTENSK

Neprilysin = Neprilysin (Homo sapiens, UniProt P08473); assay: Inhibition of human recombinant neutral endopeptidase using […] as substrate after 20 to 40 mins by fluorometry
Chain of Neprilysin (P08473 whole entry): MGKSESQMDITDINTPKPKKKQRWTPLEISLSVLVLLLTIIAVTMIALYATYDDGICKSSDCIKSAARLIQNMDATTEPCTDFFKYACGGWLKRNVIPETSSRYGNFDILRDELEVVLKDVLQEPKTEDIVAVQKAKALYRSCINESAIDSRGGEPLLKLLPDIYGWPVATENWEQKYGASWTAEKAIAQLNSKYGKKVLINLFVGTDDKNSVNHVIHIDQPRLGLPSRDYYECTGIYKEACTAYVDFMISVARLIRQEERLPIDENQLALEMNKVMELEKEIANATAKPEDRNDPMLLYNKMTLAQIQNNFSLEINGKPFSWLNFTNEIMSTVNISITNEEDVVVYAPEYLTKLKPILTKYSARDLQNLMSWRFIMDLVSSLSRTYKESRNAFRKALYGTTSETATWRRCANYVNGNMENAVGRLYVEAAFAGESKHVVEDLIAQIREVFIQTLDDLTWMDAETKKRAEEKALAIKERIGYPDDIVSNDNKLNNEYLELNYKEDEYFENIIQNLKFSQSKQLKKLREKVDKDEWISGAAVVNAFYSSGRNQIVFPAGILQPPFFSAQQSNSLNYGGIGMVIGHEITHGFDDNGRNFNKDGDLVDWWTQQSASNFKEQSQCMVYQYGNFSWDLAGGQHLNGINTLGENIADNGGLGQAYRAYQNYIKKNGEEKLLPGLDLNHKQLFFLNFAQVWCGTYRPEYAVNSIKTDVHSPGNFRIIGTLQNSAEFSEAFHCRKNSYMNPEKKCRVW

IC50 (Aminopeptidase N) [µM]	IC50 (Neprilysin) [µM]	Molecule
> 100	> 100	CC(=O)N[C@H]1[C@@H](O[C@H](C)[C@H](NC(=O)[C@H](Cc2ccccc2)NC(=O)[C@H](CCCNC(=N)N)NC(=O)[C@@H](N)CCC(N)=O)C(=O)N[C@@H](CCCNC(=N)N)C(=O)O)O[C@H](CO)[C@@H](O)[C@@H]1O (H-QRFT(X1)R-OH)
> 70	50	H-QKFSR-OH
–	> 100	H-QRFCR-OH
> 70	35	H-QRFSK-OH
> 100	> 100	H-QRFTR-OH
